What follows are compounds tested against T1, Olfr90 (Mus musculus, UniProt Q0VEL5) (assay: Luciferase reporter assay for ligand screening, HEK293T cells transfected with Lucy-Olfr90). Settings: FIG. 2: p<0.0005 for all conditions vs 0 mM.
T1 construct: Flag; expressed in transfected cells; host or cells: HEK293T
T1 sequence (Q0VEL5 1-310): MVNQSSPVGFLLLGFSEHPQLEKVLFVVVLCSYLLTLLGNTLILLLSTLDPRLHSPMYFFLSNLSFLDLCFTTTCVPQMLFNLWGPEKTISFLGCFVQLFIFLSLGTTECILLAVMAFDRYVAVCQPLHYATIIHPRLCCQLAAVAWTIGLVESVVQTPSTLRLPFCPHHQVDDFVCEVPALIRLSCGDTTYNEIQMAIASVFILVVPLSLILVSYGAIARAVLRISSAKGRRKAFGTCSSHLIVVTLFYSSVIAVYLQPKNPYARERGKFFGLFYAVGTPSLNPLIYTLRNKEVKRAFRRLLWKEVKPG
Format: cell-based
Source text: HEK293T cells were transfected with Lucy-Olfr90 and two luciferase constructs, one of which was constitutively active (Renilla) while the other was only activated by an increase in intracellular cyclic AMP due to ligand binding (Firefly).
A luciferase reporter assay was employed for ligand screening (FIG. 1). In this assay, Olfr90 may be transfected into HEK293T cells along with a firefly luciferase construct whose activity is dependent upon elevated [cAMP]i. Upon binding its ligand, the expressed Olfr90 increases [cAMP]i, leading to increased transcription of firefly luciferase (FIG. 1). A constitutively active luciferase (Renilla) is co-transfected; therefore, the ratio of Firefly/Renilla is a measure of OR activation.
In this assay, it is essential that the Olfr90 is on the cell surface. […] A novel N-terminal tag which allows for surface trafficking of the majority of the renal Olfr90 was used. This tag is a leucine rich 17 amino acid sequence (“Lucy” tag) that not only aids in trafficking to the surface, but is cleaved before the Olfr90 reaches the cell surface.
In HEK cells or hana3 cells, Olfr90 will be expressed along with along with a firefly luciferase construct whose activity is dependent upon elevated [cAMP]i. Olfr90 may be transfected with or without various chaperones (Ric8b, RTP1S, REEP, etc.) and with or without various tags (Rho, Flag, Lucy, etc.). Upon binding its ligand, the expressed OR increases [cAMP]i, leading to increased transcription of firefly luciferase. A constitutively active luciferase (Renilla) is co-transfected; therefore, the ratio of Firefly/Renilla is a measure of OR activation.

SMILES	Olfr90 response (luciferase output, Firefly/Renilla ratio) to isolated chemicals
CCCC1CCSC(C)O1 (stereo not drawn) [MPOT, 2-Methyl-4-Propyl-3,1-Oxathiane]	responded in a dose dependent manner
C=CC(O)CCCCC (stereo not drawn) [Odorant 1-Octen-3-ol, 1-Octen-3-ol]	responded in a dose dependent manner
C=CC(C)(O)CCC=C(C)C (stereo not drawn) [Linalool]	responded in a dose dependent manner
